Reference: patent US20190315806A1, “POLYMYXIN DERIVATIVE, PREPARATION METHOD AND APPLICATION THEREOF” (priority 2016, published 2019)
Converted amounts (≈) assume the structure as drawn. Where a SMILES comes first, the peptide text is derived from it. Bridges are numbered along the chain shown (N, C = ends). [ ]: non-standard residue; d: D form. The star is where a group is joined. X5 = CCCCCCCC(=O)CC(=O)*; Dab = NCC[C@H](N)C(=O)O; X9 = CCCCCCC(=O)CC(=O)*; X6 = CCCC(=O)CC(=O)*; X8 = CN(C)CCCCC(=O)*; X4 = COCCCCCC(=O)*

Tests used:
Type in all cases: cell-based
[1] = system: Acinetobacter baumannii ATCC 19606; details: ATCC 19606
Protocol: (§1) The minimum inhibitory concentration (MIC) was determined by means of dish double dilution method using a Multipoint inoculator according to the CLSI recommended method. The compounds of the present invention (for example, the compounds prepared in the Embodiments) and the reference substances were diluted twice each time with the broth into various desired concentrations, and appropriate amounts were added to the dishes. Agar medium is melted, and then quantitatively injected into the dish containing the drug solution, and mixed. The final concentrations of the compounds of the invention (e.g., the compounds prepared in the Embodiments) and the controls were 0.03, 0.06, 0.125, 0.25 . . . 128 μg/mL, respectively. The test bacteria were cultured overnight with nutrient broth, brain heart infusion or HTM broth. During the tests, the bacterial solutions were diluted appropriately, and the test bacteria (inoculation amount 10^4 CFU/dot) were inoculated on the surface of the drug-containing agar by a multi-point inoculator. After drying, the bacterial was incubated for 18 to 24 hours at 35° C., the results were observed, the minimum concentrations of the compounds of the present invention (for example, the compounds prepared in the Embodiments) and the controls contained in the dishes with no growth of colonies were MICs.
(§2) The strains used in the antibacterial activity experiments were from the American Type Culture Collection (ATCC) and clinical isolates.
(§3) The strains used for the experiments on antibacterial activity included Escherichia coli ATCC 25922, Klebsiella pneumoniae ATCC BAA-2146 (NDM-1), Pseudomonas aeruginosa ATCC 27853, Acinetobacter baumannii ATCC 19606 and Staphylococcus epidermidis ATCC 12228.
(§4) Tested samples: polymyxin derivatives prepared according to the technical scheme of the present invention;
(§5) Controls: polymyxin B sulfate and colistin (polymyxin E sulfate).

[2] = system: Escherichia coli ATCC 25922; details: ATCC 25922
Protocol: as §1, §2, §3, §4, §5

[3] = system: Pseudomonas aeruginosa ATCC 27853; details: ATCC 27853
Protocol: as §1, §2, §3, §4, §5

[4] = system: Staphylococcus epidermidis ATCC 12228; details: ATCC 12228
Protocol: as §1, §2, §3, §4, §5

[5] = system: Klebsiella pneumoniae ATCC BAA-2146 (NDM-1); assay: Antibacterial activity, MIC by dish double dilution method; details: ATCC BAA-2146
Protocol: as §1, §2, §3, §4, §5

MIC A. baumannii ATCC 19606 [1] [µg/mL]	MIC E. coli ATCC 25922 [2] [µg/mL]	MIC P. aeruginosa ATCC 27853 [3] [µg/mL]	MIC S. epidermidis ATCC 12228 [4] [µg/mL]	MIC K. pneumoniae ATCC BAA-2146 (NDM-1) [5] [µg/mL]	Compound
2 (≈ 1.68 µM)	1 (≈ 0.839 µM)	1 (≈ 0.839 µM)	>128	4 (≈ 3.36 µM)	COCCCCCC(=O)N[C@@H](CCN)C(=O)N[C@H](C(=O)N[C@@H](CCN)C(=O)N[C@H]1CCNC(=O)[C@H]([C@@H](C)O)NC(=O)[C@H](CCN)NC(=O)[C@H](CCN)NC(=O)[C@H](CC(C)C)NC(=O)[C@@H](Cc2ccccc2)NC(=O)[C@H](CCN)NC1=O)[C@@H](C)O [Compound 1, 6-methoxycaproyl-Dab-Thr-Dab-ring(4-10)[Dab-Dab-D-Phe-Lue-Dab-Dab-Thr]] (X4-[Dab]T[Dab][Dab][Dab][dF]L[Dab][Dab]T; lactam 4-C)
8 (≈ 6.72 µM)	16 (≈ 13.4 µM)	1 (≈ 0.84 µM)	>128	128 (≈ 108 µM)	CC(C)C[C@@H]1NC(=O)[C@@H](Cc2ccccc2)NC(=O)[C@H](CCN)NC(=O)[C@@H](NC(=O)[C@H](CCN)NC(=O)[C@@H](NC(=O)[C@H](CCN)NC(=O)CCCCN(C)C)[C@@H](C)O)CCNC(=O)[C@H]([C@@H](C)O)NC(=O)[C@H](CCN)NC(=O)[C@H](CCN)NC1=O [Compound 2, N,N-dimethylaminovaleryl-Dab-Thr-Dab-ring(4-10)[Dab-Dab-D-Phe-Lue-Dab-Dab-Thr]] (X8-[Dab]T[Dab][Dab][Dab][dF]L[Dab][Dab]T; lactam 4-C)
8 (≈ 6.81 µM)	0.5 (≈ 0.425 µM)	2 (≈ 1.7 µM)	128 (≈ 109 µM)	2 (≈ 1.7 µM)	CCCC(=O)CC(=O)N[C@@H](CCN)C(=O)N[C@H](C(=O)N[C@@H](CCN)C(=O)N[C@H]1CCNC(=O)[C@H]([C@@H](C)O)NC(=O)[C@H](CCN)NC(=O)[C@H](CCN)NC(=O)[C@H](CC(C)C)NC(=O)[C@@H](Cc2ccccc2)NC(=O)[C@H](CCN)NC1=O)[C@@H](C)O [Compound 3, 3-oxocaproyl-Dab-Thr-Dab-ring(4-10)[Dab-Dab-D-Phe-Lue-Dab-Dab-Thr]] (X6-[Dab]T[Dab][Dab][Dab][dF]L[Dab][Dab]T; lactam 4-C)
2 (≈ 1.64 µM)	1 (≈ 0.821 µM)	2 (≈ 1.64 µM)	16 (≈ 13.1 µM)	1 (≈ 0.821 µM)	CCCCCCC(=O)CC(=O)N[C@@H](CCN)C(=O)N[C@H](C(=O)N[C@@H](CCN)C(=O)N[C@H]1CCNC(=O)[C@H]([C@@H](C)O)NC(=O)[C@H](CCN)NC(=O)[C@H](CCN)NC(=O)[C@H](CC(C)C)NC(=O)[C@@H](Cc2ccccc2)NC(=O)[C@H](CCN)NC1=O)[C@@H](C)O [Compound 6, 3-oxononanoyl-Dab-Thr-Dab-ring(4-10)[Dab-Dab-D-Phe-Lue-Dab-Dab-Thr]] (X9-[Dab]T[Dab][Dab][Dab][dF]L[Dab][Dab]T; lactam 4-C)
2 (≈ 1.62 µM)	2 (≈ 1.62 µM)	4 (≈ 3.25 µM)	32 (≈ 26 µM)	2 (≈ 1.62 µM)	CCCCCCCC(=O)CC(=O)N[C@@H](CCN)C(=O)N[C@H](C(=O)N[C@@H](CCN)C(=O)N[C@H]1CCNC(=O)[C@H]([C@@H](C)O)NC(=O)[C@H](CCN)NC(=O)[C@H](CCN)NC(=O)[C@H](CC(C)C)NC(=O)[C@@H](Cc2ccccc2)NC(=O)[C@H](CCN)NC1=O)[C@@H](C)O [Compound 7, 3-oxodecanoyl-Dab-Thr-Dab-ring(4-10)[Dab-Dab-D-Phe-Lue-Dab-Dab-Thr]] (X5-[Dab]T[Dab][Dab][Dab][dF]L[Dab][Dab]T; lactam 4-C)
